The assay has as its target T1, purified mannose receptor (Homo sapiens, UniProt P22897).
T1 construct: purified mannose receptor (Lennartz, M. R. et al., J Biol Chem (1987) 262:9942-9944 (supra)) is added; from tissue
T1 sequence (P22897 19-1456): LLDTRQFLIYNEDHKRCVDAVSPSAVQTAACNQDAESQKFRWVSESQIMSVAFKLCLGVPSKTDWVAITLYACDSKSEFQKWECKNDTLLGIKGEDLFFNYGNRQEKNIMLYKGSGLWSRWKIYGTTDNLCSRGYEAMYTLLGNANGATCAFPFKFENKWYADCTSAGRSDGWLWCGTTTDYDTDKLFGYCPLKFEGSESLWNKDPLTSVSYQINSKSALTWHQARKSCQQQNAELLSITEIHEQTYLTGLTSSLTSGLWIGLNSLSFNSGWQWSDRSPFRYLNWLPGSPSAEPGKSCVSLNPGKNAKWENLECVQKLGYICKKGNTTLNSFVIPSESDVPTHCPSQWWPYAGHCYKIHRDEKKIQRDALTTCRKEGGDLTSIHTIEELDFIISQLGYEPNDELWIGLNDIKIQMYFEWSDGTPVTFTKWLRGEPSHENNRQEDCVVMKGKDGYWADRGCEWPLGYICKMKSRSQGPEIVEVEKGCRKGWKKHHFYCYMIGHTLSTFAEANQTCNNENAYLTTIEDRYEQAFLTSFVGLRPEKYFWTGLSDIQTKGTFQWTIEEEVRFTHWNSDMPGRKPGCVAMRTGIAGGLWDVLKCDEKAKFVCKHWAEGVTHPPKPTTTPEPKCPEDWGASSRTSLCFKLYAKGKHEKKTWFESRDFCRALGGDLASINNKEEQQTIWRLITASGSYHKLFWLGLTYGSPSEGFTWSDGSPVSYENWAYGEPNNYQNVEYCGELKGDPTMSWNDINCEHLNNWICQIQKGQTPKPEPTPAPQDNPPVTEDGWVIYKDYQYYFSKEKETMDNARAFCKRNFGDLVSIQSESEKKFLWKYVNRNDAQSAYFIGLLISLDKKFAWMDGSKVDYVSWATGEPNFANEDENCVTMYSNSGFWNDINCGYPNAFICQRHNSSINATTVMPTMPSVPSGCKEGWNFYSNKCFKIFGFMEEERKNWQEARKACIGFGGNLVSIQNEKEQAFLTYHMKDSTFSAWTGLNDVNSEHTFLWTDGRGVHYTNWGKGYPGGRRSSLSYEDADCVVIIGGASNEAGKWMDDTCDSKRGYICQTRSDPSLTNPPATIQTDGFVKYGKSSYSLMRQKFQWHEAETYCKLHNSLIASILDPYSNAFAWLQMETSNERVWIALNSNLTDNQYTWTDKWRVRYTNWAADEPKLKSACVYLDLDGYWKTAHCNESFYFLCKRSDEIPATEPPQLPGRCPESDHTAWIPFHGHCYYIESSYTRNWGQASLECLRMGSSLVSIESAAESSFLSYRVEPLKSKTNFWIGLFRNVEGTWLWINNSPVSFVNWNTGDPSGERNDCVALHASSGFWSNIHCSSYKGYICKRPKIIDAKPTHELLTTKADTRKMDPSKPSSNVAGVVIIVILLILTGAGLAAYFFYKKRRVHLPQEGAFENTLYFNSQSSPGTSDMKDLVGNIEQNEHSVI
In words: Competition of 125I-mannose-BSA binding to isolated mannose receptor on beads. Particulars: for pIC50: 125I-mannose-BSA 2 nM, 37° C., 15 minutes, read-out: IC50 (concentration effecting 50% inhibition of 125I-mannose-BSA binding to mannose receptor). The method, then: The assay measures the ability of the test compound to inhibit the binding of ^125 I-mannose-BSA, prepared as described, to isolated mannose receptor. To prepare solid supported receptor protein A-sepharose (IgG-SORB) is incubated with rabbit anti-human mannose receptor antiserum for 20 minutes at room temperature. The beads are then washed by sedimentation 3 times in Tris-buffered saline containing 1% Triton X-100, 1% BSA and 15 mM CaCl2 (assay buffer). The beads are then suspended in an assay buffer and purified mannose receptor (Lennartz, M. R. et al., J Biol Chem (1987) 262:9942-9944 (supra)) is added, followed by incubation for 30 minutes at 37° C. The beads are washed again three times to remove unbound receptor.
In the assay, the receptor-linked beads are resuspended in a total volume of 100 μL assay buffer containing 0.1 μCi ^125 I-mannose-BSA (2 nM) prepared according to (Stahl, P. et al., Cell (1980) (supra)) with and without test compound. Following incubation at 37° C. for 15 minutes, the beads are diluted in ice cold buffer and washed three times in the same assay buffer as the dissociation or receptor/ligand at 4° C. is quite slow. The cpm of ^125 I-mannose-BSA remaining in the […] is determined, and the percent inhibition of test compound at various concentrations calculated. The IC50 is then the concentration which effects a 50% inhibition in binding. Nonspecific binding of ligand to beads is determined by adding excess yeast mannan to parallel assays and accounted for in the calculations.
The ^125 I-mannose-BSA used in the assay binds to receptor beads with a Kd of 2 nM as determined in the foregoing assay using unlabeled mannose-BSA as test compound.
The competition was conducted as set forth above, using as test compounds, mannose, oligosaccharides containing 3, 5, 7, 9 or 13 mannose residues linked α1, 4 (Man9 and Man13, respectively) and two proteins known to contain mannose residues, β-glucuronidase and invertase. ^125 I-mannose-BSA at 2 nM was used in the assay and mannose-BSA was used in a control. Varying concentrations of test compound were used to determine the IC50 for each material.
The compounds synthesized in Example 2 were tested in the assay system described in Example 1 above under the conditions therein set forth. FIGS. 2 and 3 show the results. The IC50 (concentration of test compound which effects 50% inhibition of binding of labeled mannose-BSA under the conditions of the assay) can be read from the figures.

pIC50: −log10 of the molar value.

Take Man9: the pIC50 is approximately 4.70.

Regarding “Invertase: protein known to contain mannose residues”, the pIC50 was 7.00 to 8.00. Besides, the “ability to inhibit the binding of 125I-mannosyl-BSA after digestion with pronase” value (digested with pronase) was “destroyed”.

Turning to `O=C[C@@H](O)[C@@H](O)[C@H](O)[C@H](O)CO` [Mannose, mannose], where the note is “relative to Man9/Man13, FIG. 1”, the “fold less effective than the mannose oligosaccharides in inhibiting 125I-mannose-BSA binding” value is “at least 1,000 fold”.

The values are drawn from patent publication US5432260A, “High affinity mannose receptor ligands” (Washington University, priority 1991, dated 1995).
